Measurements reported in article PMC9569420 (Communications Biology, 2022).
pIC50: −log10 of the molar value.

Tests used:
c-MET = target: T1, c-MET (Homo sapiens, UniProt P08581); test: biochemical; settings: read-out: % Enzyme Activity (relative to DMSO controls)
T1 construct: purchased Reaction Biology Corporation

MSK2/RPS6KA4 = target: T2, MSK2/RPS6KA4 (Homo sapiens, UniProt O75676); test: HotSpot kinase assay; format: biochemical; settings: read-out: % Enzyme Activity (relative to DMSO controls)
T2 construct: purchased Reaction Biology Corporation

PtdS and Akt = test: translocation of PtdS and Akt to the outer leaflet (microscopy), HSV-2 infected HaCat; format: cell-based, human; settings: 10µM
MEK2 = target: T3, MEK2 (Homo sapiens, UniProt P36507); test: HotSpot kinase assay; format: biochemical; settings: read-out: % Enzyme Activity (relative to DMSO controls)
T3 construct: purchased Reaction Biology Corporation

NEK11 = target: T4, NEK11 (Homo sapiens, UniProt Q8NG66); test: HotSpot kinase assay; format: biochemical; settings: read-out: % Enzyme Activity (relative to DMSO controls)
T4 construct: purchased Reaction Biology Corporation

MAPKAPK5/PRAK = target: T5, MAPKAPK5/PRAK (Homo sapiens, UniProt Q8IW41); test: HotSpot kinase assay; format: biochemical; settings: read-out: % Enzyme Activity (relative to DMSO controls)
T5 construct: purchased Reaction Biology Corporation

FMS = target: T6, FMS (Homo sapiens, UniProt P07333); test: HotSpot kinase assay; format: biochemical; settings: read-out: % Enzyme Activity (relative to DMSO controls)
T6 construct: purchased Reaction Biology Corporation

MYO3b = target: T7, MYO3b (Homo sapiens, UniProt Q8WXR4); test: HotSpot kinase assay; format: biochemical; settings: read-out: % Enzyme Activity (relative to DMSO controls)
T7 construct: purchased Reaction Biology Corporation

FER = target: T8, FER (Homo sapiens, UniProt P16591); test: HotSpot kinase assay; format: biochemical; settings: read-out: % Enzyme Activity (relative to DMSO controls)
T8 construct: purchased Reaction Biology Corporation

PKCepsilon = target: T9, PKCepsilon (Homo sapiens, UniProt Q02156); test: HotSpot kinase assay; format: biochemical; settings: read-out: % Enzyme Activity (relative to DMSO controls)
T9 construct: purchased Reaction Biology Corporation

NEK9 = target: T10, NEK9 (Homo sapiens, UniProt Q8TD19); test: HotSpot kinase assay; format: biochemical; settings: read-out: % Enzyme Activity (relative to DMSO controls)
T10 construct: purchased Reaction Biology Corporation

PIM1 = target: T11, PIM1 (Homo sapiens, UniProt P11309); test: HotSpot kinase assay; format: biochemical; settings: read-out: % Enzyme Activity (relative to DMSO controls)
T11 construct: purchased Reaction Biology Corporation

Akt (pAkt T308) = format: cell-based, monkey; settings: 10µM
NIM1 = target: T12, NIM1 (Homo sapiens, UniProt Q8IY84); test: HotSpot kinase assay; format: biochemical; settings: read-out: % Enzyme Activity (relative to DMSO controls)
T12 construct: purchased Reaction Biology Corporation

Aurora B = target: T13, Aurora B (Homo sapiens, UniProt Q96GD4); test: HotSpot kinase assay; format: biochemical; settings: read-out: % Enzyme Activity (relative to DMSO controls)
T13 construct: purchased Reaction Biology Corporation

BRK = target: T14, BRK (Homo sapiens, UniProt Q13882); test: HotSpot kinase assay; format: biochemical; settings: read-out: % Enzyme Activity (relative to DMSO controls)
T14 construct: purchased Reaction Biology Corporation

ABL1 = target: T15, ABL1 (Homo sapiens, UniProt P00519); test: biochemical
T15 construct: purchased Reaction Biology Corporation
T15 sequence (P00519 whole entry): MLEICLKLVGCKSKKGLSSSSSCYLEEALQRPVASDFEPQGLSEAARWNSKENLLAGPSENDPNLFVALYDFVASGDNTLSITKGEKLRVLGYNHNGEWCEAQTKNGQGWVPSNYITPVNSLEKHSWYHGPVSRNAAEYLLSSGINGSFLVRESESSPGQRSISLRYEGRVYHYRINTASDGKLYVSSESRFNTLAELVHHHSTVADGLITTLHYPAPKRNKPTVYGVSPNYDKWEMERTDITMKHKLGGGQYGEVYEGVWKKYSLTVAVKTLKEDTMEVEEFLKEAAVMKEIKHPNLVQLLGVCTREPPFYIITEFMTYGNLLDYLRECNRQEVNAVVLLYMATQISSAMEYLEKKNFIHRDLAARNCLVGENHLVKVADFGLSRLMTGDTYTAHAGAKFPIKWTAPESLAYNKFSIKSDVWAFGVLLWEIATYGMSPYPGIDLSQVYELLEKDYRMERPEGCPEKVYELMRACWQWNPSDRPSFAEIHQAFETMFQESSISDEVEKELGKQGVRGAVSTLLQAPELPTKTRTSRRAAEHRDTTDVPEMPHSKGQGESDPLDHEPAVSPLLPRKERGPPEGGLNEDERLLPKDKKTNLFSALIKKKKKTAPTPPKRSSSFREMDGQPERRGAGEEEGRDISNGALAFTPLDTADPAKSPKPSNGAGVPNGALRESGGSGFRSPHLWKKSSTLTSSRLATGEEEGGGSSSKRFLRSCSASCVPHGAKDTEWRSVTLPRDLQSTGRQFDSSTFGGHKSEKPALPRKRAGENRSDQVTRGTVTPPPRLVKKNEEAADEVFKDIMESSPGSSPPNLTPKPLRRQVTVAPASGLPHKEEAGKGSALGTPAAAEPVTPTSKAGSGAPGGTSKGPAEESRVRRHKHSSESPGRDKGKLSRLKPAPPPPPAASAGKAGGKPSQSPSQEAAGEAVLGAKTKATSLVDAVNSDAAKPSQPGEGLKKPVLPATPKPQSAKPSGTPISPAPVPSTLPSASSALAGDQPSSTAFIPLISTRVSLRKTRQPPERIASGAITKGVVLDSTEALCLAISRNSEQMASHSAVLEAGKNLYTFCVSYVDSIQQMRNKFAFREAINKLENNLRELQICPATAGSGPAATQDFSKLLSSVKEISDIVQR

PIM3 = target: T16, PIM3 (Homo sapiens, UniProt Q86V86); test: HotSpot kinase assay; format: biochemical; settings: read-out: % Enzyme Activity (relative to DMSO controls)
T16 construct: purchased Reaction Biology Corporation

EPHA2 = target: T17, EPHA2 (Homo sapiens, UniProt P29317); test: HotSpot kinase assay; format: biochemical; settings: read-out: % Enzyme Activity (relative to DMSO controls)
T17 construct: purchased Reaction Biology Corporation

TESK2 = target: T18, TESK2 (Homo sapiens, UniProt Q96S53); test: HotSpot kinase assay; format: biochemical; settings: read-out: % Enzyme Activity (relative to DMSO controls)
T18 construct: purchased Reaction Biology Corporation
T18 sequence (Q96S53 whole entry): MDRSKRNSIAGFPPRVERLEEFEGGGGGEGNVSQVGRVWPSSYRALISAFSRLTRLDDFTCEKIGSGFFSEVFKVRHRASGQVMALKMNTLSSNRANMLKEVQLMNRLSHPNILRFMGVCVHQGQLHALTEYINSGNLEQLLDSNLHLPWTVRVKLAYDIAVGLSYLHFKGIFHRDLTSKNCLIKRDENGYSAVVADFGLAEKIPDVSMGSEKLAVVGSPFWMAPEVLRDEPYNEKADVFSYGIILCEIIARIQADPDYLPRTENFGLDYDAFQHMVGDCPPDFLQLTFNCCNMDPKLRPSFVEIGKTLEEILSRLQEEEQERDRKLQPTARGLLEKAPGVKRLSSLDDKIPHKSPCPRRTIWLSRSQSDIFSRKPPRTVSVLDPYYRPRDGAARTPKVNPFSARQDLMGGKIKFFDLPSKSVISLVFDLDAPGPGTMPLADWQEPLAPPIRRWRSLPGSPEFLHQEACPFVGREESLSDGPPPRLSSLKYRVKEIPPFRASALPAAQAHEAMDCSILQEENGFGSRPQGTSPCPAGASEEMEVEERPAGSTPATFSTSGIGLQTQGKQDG

FGFR3 = target: T19, FGFR3 (Homo sapiens, UniProt P22607); test: HotSpot kinase assay; format: biochemical; settings: read-out: % Enzyme Activity (relative to DMSO controls)
T19 construct: purchased Reaction Biology Corporation

PKCd = target: T20, PKCd (Homo sapiens, UniProt Q05655); test: biochemical
T20 construct: purchased Reaction Biology Corporation
T20 sequence (Q05655 whole entry): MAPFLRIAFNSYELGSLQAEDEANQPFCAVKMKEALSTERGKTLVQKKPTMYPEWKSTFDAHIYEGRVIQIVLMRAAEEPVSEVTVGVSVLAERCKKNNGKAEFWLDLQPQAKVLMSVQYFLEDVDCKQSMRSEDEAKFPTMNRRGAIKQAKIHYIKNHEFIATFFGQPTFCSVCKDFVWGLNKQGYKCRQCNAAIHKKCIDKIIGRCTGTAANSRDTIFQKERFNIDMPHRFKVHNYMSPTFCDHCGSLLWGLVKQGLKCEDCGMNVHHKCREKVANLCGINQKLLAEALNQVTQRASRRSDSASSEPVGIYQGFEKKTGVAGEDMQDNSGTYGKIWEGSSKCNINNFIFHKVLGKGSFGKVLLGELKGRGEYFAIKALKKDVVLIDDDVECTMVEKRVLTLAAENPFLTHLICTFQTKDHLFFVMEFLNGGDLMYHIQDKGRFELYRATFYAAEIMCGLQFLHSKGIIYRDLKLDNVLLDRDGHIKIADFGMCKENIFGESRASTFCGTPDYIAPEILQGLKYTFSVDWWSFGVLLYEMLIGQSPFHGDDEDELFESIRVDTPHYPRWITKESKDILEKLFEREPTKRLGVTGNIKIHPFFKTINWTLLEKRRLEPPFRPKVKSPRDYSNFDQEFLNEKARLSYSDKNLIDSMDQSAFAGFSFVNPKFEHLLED

ALK5/TGFBR1 = target: T21, ALK5/TGFBR1 (Homo sapiens, UniProt P36897); test: HotSpot kinase assay; format: biochemical; settings: read-out: % Enzyme Activity (relative to DMSO controls)
T21 construct: purchased Reaction Biology Corporation
T21 sequence (P36897 34-503): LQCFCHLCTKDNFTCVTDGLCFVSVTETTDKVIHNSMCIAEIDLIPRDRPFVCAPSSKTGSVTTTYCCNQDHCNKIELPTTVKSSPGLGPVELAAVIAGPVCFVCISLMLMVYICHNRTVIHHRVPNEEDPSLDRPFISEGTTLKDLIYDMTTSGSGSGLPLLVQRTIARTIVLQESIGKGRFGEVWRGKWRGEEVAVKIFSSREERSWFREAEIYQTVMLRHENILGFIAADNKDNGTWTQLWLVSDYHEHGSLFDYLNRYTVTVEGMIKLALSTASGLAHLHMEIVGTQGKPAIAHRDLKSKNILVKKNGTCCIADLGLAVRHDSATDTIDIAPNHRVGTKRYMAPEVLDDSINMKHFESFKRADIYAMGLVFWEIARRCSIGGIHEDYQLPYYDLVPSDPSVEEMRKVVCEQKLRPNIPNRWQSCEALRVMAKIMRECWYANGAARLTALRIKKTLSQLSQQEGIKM

GRK7 = target: T22, GRK7 (Homo sapiens, UniProt Q8WTQ7); test: HotSpot kinase assay; format: biochemical; settings: read-out: % Enzyme Activity (relative to DMSO controls)
T22 construct: purchased Reaction Biology Corporation
T22 sequence (Q8WTQ7 whole entry): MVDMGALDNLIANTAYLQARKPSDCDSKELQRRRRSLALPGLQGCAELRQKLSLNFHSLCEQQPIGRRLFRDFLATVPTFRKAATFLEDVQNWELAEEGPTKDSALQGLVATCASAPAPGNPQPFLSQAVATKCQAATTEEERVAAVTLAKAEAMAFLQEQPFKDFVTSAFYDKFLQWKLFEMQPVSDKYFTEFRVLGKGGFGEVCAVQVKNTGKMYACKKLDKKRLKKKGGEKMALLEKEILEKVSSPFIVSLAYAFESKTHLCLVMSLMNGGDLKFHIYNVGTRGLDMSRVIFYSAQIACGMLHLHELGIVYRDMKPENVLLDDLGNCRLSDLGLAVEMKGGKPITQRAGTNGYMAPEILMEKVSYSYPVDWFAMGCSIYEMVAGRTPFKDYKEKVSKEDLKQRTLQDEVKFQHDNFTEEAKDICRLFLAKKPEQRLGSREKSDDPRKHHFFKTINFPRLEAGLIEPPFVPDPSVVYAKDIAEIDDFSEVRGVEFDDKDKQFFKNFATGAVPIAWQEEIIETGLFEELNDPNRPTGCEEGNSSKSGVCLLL

PKCIOTA = target: T23, PKCIOTA (Homo sapiens, UniProt P41743); test: HotSpot kinase assay; format: biochemical; settings: read-out: % Enzyme Activity (relative to DMSO controls)
T23 construct: purchased Reaction Biology Corporation

HSV-1 K26GFP = test: capsid entry, confocal imaging, HaCat cells; format: cell-based; settings: 1 h post-temperature shift; CIMSS 10 μM, antibody 2 μg/ml
Method: To quantify viral entry, cells were synchronously infected by allowing virus to bind to cells at 4°C for 4 h, washed, and then transferred to 37 °C. CIMSS or control DMSO was added at the time of temperature shift. At indicated times post-temperature shift, the cells were treated with a low pH buffer to inactivate virus that had not penetrated, washed, overlaid with medium containing methyl cellulose and viral plaques were counted at 48 h. Entry was also assessed by immunoblotting nuclear extracts for VP16. […] Nuclear extracts were prepared after 1 h and analyzed by western blot with antibodies targeting VP16, histone H1 and golgin-97[5]. The non-nuclear fraction was also probed for golgin-97 as a positive control. […] After 1 or 4 h of incubation, the cells were fixed. Plasma membranes were stained using Image -IT^TM LIVE Plasma Membrane kit and nuclei were stained with DAPI (Thermo Fisher Scientific, Cat 134406). The percentage of GFP + nuclei was determined by counting ~200 cells over 3–4 fields. Images were obtained with Leica SP8 microscope (objective 63 × 1.4); xz images were captured with optical slice 0.6 µm, 25–30 slices per image.

IRR/INSRR = target: T24, IRR/INSRR (Homo sapiens, UniProt P14616); test: HotSpot kinase assay; format: biochemical; settings: read-out: % Enzyme Activity (relative to DMSO controls)
T24 construct: purchased Reaction Biology Corporation

SRPK2 = target: T25, SRPK2 (Homo sapiens, UniProt P78362); test: HotSpot kinase assay; format: biochemical; settings: read-out: % Enzyme Activity (relative to DMSO controls)
T25 construct: purchased Reaction Biology Corporation

DYRK2 = target: T26, DYRK2 (Homo sapiens, UniProt Q92630); test: HotSpot kinase assay; format: biochemical; settings: read-out: % Enzyme Activity (relative to DMSO controls)
T26 construct: purchased Reaction Biology Corporation
T26 sequence (Q92630 whole entry): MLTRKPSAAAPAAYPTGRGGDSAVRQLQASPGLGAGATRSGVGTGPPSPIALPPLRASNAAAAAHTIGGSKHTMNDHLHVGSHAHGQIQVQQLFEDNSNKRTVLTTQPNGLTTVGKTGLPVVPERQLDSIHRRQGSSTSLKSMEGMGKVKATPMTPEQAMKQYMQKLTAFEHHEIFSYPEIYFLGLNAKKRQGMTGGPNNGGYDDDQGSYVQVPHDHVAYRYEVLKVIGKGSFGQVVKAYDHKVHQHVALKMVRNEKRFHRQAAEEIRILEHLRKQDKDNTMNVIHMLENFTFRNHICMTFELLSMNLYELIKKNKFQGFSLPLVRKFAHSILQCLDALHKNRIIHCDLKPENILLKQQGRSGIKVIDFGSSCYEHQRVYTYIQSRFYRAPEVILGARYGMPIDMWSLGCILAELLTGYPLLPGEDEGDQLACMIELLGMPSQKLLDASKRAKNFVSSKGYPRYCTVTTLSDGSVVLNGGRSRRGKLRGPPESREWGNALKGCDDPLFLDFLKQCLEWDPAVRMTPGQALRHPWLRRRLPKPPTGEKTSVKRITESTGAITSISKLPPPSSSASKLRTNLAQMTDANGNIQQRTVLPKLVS

AKT3 = target: T27, AKT3 (Homo sapiens, UniProt Q9Y243); test: biochemical
T27 construct: purchased Reaction Biology Corporation
T27 sequence (Q9Y243 whole entry): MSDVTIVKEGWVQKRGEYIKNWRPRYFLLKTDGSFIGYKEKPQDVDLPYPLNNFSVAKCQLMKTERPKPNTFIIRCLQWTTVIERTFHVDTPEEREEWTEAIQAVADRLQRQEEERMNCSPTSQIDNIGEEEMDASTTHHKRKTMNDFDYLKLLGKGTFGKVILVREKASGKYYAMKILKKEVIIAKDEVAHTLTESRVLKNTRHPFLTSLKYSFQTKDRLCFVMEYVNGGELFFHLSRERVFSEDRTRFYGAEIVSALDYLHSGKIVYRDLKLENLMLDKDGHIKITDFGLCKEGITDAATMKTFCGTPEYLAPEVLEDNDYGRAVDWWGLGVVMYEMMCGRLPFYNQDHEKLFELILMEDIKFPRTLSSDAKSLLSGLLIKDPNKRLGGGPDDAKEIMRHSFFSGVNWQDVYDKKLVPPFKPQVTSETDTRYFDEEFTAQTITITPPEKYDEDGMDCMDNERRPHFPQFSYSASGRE

NEK5 = target: T28, NEK5 (Homo sapiens, UniProt Q6P3R8); test: HotSpot kinase assay; format: biochemical; settings: read-out: % Enzyme Activity (relative to DMSO controls)
T28 construct: purchased Reaction Biology Corporation

GSK3a = target: T29, GSK3a (Homo sapiens, UniProt P49840); test: HotSpot kinase assay; format: biochemical; settings: read-out: % Enzyme Activity (relative to DMSO controls)
T29 construct: purchased Reaction Biology Corporation
T29 sequence (P49840 whole entry): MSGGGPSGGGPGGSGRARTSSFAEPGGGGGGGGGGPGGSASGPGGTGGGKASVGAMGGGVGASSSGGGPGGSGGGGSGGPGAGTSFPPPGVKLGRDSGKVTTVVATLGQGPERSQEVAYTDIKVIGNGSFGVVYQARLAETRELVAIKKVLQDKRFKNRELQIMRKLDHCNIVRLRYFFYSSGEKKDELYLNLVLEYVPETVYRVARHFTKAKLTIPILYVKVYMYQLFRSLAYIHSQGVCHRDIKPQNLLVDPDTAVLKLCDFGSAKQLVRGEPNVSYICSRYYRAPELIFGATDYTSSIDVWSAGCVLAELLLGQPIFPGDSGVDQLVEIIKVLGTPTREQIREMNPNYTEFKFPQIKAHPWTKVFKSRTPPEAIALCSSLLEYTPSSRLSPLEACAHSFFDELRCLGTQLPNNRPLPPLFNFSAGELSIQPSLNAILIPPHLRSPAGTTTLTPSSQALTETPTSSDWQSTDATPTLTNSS

ALK = target: T30, ALK (Homo sapiens, UniProt Q9UM73); test: HotSpot kinase assay; format: biochemical; settings: read-out: % Enzyme Activity (relative to DMSO controls)
T30 construct: purchased Reaction Biology Corporation

LYN B = target: T31, LYN B (Homo sapiens, UniProt P07948); test: HotSpot kinase assay; format: biochemical; settings: read-out: % Enzyme Activity (relative to DMSO controls)
T31 construct: purchased Reaction Biology Corporation

TSSK2 = target: T32, TSSK2 (Homo sapiens, UniProt Q96PF2); test: HotSpot kinase assay; format: biochemical; settings: read-out: % Enzyme Activity (relative to DMSO controls)
T32 construct: purchased Reaction Biology Corporation

HaCat cells = test: cell proliferation and viability, ~50% confluence; settings: 0.1–100 μM, 24 and 72 h; except 72 h at 100 μM
[1] = Supplementary Table 1, read-out: IC50 (Molar concentration)
[2] = read-out: % Enzyme Activity (relative to DMSO controls), 10µM

CO[C@@H]1[C@H](N(C)C(=O)CCC(=O)NCc2cn(CCCS(=O)(=O)O)nn2)C[C@H]2O[C@]1(C)n1c3ccccc3c3c4c(c5c6ccccc6n2c5c31)C(=O)NC4 [CIMSS]
remaining activity at 10 µM (c-MET): 12.4%
remaining activity at 10 µM (MSK2/RPS6KA4): 2.11%
translocation of PtdS and Akt to the outer leaflet of the plasma membrane (PtdS and Akt): did not block
remaining activity at 10 µM (MEK2): 68%
remaining activity at 10 µM (NEK11): 52%
remaining activity at 10 µM (MAPKAPK5/PRAK): 85.2%
remaining activity at 10 µM (FMS): 0.52%
remaining activity at 10 µM (MYO3b): 4.81%
remaining activity at 10 µM (FER): 0.37%
remaining activity at 10 µM (PKCepsilon): 1.11%
remaining activity at 10 µM (NEK9): 2.81%
remaining activity at 10 µM (PIM1): 0.88%
extracellular phosphorylation of Akt (Akt (pAkt T308)): inhibited
remaining activity at 10 µM (NIM1): 46.6%
remaining activity at 10 µM (Aurora B): 2.85%
remaining activity at 10 µM (BRK): 25.5%
pIC50 (ABL1; [1]): 6.84
remaining activity at 10 µM (ABL1; [2]): 5.18%
remaining activity at 10 µM (PIM3): 2.51%
remaining activity at 10 µM (EPHA2): 33.5%
remaining activity at 10 µM (TESK2): 91.2%
remaining activity at 10 µM (FGFR3): 4.66%
pIC50 (PKCd; [1]): 8.44
remaining activity at 10 µM (PKCd; [2]): 8.64%
remaining activity at 10 µM (ALK5/TGFBR1): 86.6%
remaining activity at 10 µM (GRK7): 7.19%
remaining activity at 10 µM (PKCIOTA): 31.5%
percentage of GFP + cells (HSV-1 K26GFP): significantly decreased
remaining activity at 10 µM (IRR/INSRR): 4.68%
remaining activity at 10 µM (SRPK2): 8.02%
remaining activity at 10 µM (DYRK2): 9.12%
pIC50 (AKT3; [1]): 6.80
remaining activity at 10 µM (AKT3; [2]): 11.4%
inhibition at 10 µM (AKT3; read-out: inhibition of Akt3): > 75%
remaining activity at 10 µM (NEK5): 6.56%
remaining activity at 10 µM (GSK3a): 2.72%
remaining activity at 10 µM (ALK): 4.12%
remaining activity at 10 µM (LYN B): 2.95%
remaining activity at 10 µM (TSSK2): 21.2%
inhibition of cell growth (HaCat cells): no significant inhibition
